Reference: DBAASP
In brackets after ≈: the same amount, converted by molar mass. Blank lines part the entries; values can stand above or below the compound they belong to.

Tests used:
Experiment in all cases: ≥ marks a high value that may be exact or a test limit, other limits are often not marked, values filed in µg/mL are converted to µM
[1] = test system: Bacillus cereus ATCC 11778
[2] = test system: Escherichia coli ATCC 25922
[3] = test system: Staphylococcus epidermidis ATCC 12228
[4] = test system: Pseudomonas aeruginosa ATCC 27853
[5] = test system: Shigella sonnei ATCC 11060
[6] = test system: Salmonella enterica subsp. enterica serovar Typhimurium ATCC 13311
Escherichia coli O157 = test system: Escherichia coli O157
[7] = test system: Staphylococcus aureus ATCC 25923
[8] = test system: Enterococcus faecalis ATCC 29212
[9] = test system: Staphylococcus aureus ATCC 43300
Vibrio cholerae O1 Inaba = test system: Vibrio cholerae O1 Inaba
[10] = test system: Pseudomonas aeruginosa ATCC 47085
[11] = test system: Acinetobacter baumannii ATCC 19606
[12] = test system: Klebsiella pneumoniae ATCC 13883
[13] = test system: Staphylococcus aureus ATCC 9144
[14] = test system: Staphylococcus aureus E4049
[15] = test system: Staphylococcus aureus 5118
[16] = test system: Staphylococcus aureus 3968
[17] = test system: Candida albicans ATCC 10231
[18] = test system: Saccharomyces cerevisiae SZMC 0644
Candida krusei CBS 573 = test system: Candida krusei CBS 573
[19] = test system: Candida parapsilosis CBS 604
[20] = test system: Aeromonas salmonicida RFAS1
[21] = test system: Vibrio alginolyticus KCCM 2928
[22] = test system: Vibrio harveyi ATCC 14126
[23] = test system: Edwardsiella tarda FP4130
[24] = test system: Vibrio ordalii KCCM 41669
[25] = test system: Streptococcus iniae FP5228

SMILES: CC(C)C[C@H](NC(=O)CNC(=O)[C@H](CCCN=C(N)N)NC(=O)[C@H](CS)NC(=O)[C@H](CC(=O)O)NC(=O)CNC(=O)CNC(=O)[C@H](CO)NC(=O)[C@@H](N)Cc1ccccc1)C(=O)N[C@@H](CCCN=C(N)N)C(=O)N[C@@H](CCCN=C(N)N)C(=O)N[C@@H](CCCN=C(N)N)C(=O)N[C@@H](CS)C(=O)N[C@@H](Cc1ccccc1)C(=O)N[C@@H](CS)C(=O)N[C@H](C(=O)N[C@@H](CCCN=C(N)N)C(N)=O)[C@@H](C)O [FSGGDCRGLRRRCFCTR]
MIC [1]: ≥ 251 µM
MIC [2]: > 251 µM
MIC [3]: 15.7 µM (≈ 31.2 µg/mL)
MIC [4]: > 251 µM
MIC [5]: ≥ 126 µM
MIC [6]: 31.4 µM (≈ 62.5 µg/mL)
MIC (Escherichia coli O157): ≥ 229 µM
MIC [7]: > 251 µM
MIC [8]: 251 µM (≈ 500 µg/mL)
MIC [9]: > 251 µM
MIC (Vibrio cholerae O1 Inaba): ≥ 126 µM

SMILES: CC[C@H](C)[C@H](NC(=O)[C@H](CC(N)=O)NC(=O)[C@H](CCCCN)NC(=O)[C@H](Cc1c[nH]c2ccccc12)NC(=O)CNC(=O)[C@H](CCC(=O)O)NC(=O)[C@H](CCCCN)NC(=O)[C@H](CC(C)C)NC(=O)[C@H](CCC(=O)O)NC(=O)[C@H](CCC(N)=O)NC(=O)[C@H](Cc1ccccc1)NC(=O)[C@@H](N)Cc1ccccc1)C(=O)N[C@@H](CCCCN)C(=O)N[C@@H](CCCCN)C(=O)N[C@@H](C)C(=O)O [FFQELKEGWKNIKKA]
MIC [20]: 7.8 µM (≈ 14.6 µg/mL)
MIC [21]: 7.8 µM (≈ 14.6 µg/mL)
MIC [22]: ≥ 125 µM
MIC [23]: ≥ 62.5 µM
MIC [24]: 2 µM (≈ 3.73 µg/mL)
MIC [25]: 15.6 µM (≈ 29.1 µg/mL)

Continued, values first:

MIC [10]: ≥ 100 µM
MIC [11]: > 100 µM
MIC [2]: 2.6 µM (≈ 6.22 µg/mL)
MIC [12]: 2 µM (≈ 4.78 µg/mL)
SMILES: CC(=O)N[C@@H](CCCN=C(N)N)C(=O)N1CCC[C@H]1C(=O)N[C@@H](CC(=O)O)C(=O)N[C@@H](CCCCN)C(=O)N1CCC[C@H]1C(=O)N[C@@H](CCCN=C(N)N)C(=O)N1CCC[C@H]1C(=O)N[C@@H](Cc1ccc(O)cc1)C(=O)N[C@@H](CC(C)C)C(=O)N1CCC[C@H]1C(=O)N[C@@H](CCCN=C(N)N)C(=O)N1CCC[C@H]1C(=O)N[C@@H](CCCN=C(N)N)C(=O)N1CCC[C@H]1C(=O)N1CCC[C@H]1C(=O)N[C@@H](CCCN=C(N)N)C(=O)N1CCC[C@H]1C(=O)N[C@H](C(=O)N[C@@H](CCCN=C(N)N)C(N)=O)C(C)C [RPDKPRPYLPRPRPPRPVR]

MIC [13]: ≥ 125 µM
MIC [14]: 15.5 µM (≈ 38 µg/mL)
MIC [15]: ≥ 125 µM
MIC [16]: ≥ 250 µM
SMILES: CSCC[C@H](NC(=O)[C@H](C)NC(=O)[C@H](CC(C)C)NC(=O)[C@@H](N)CCCCN)C(=O)N[C@@H](CO)C(=O)N[C@@H](CCSC)C(=O)N[C@@H](CO)C(=O)N[C@@H](Cc1ccccc1)C(=O)N[C@@H](CC(N)=O)C(=O)N[C@@H](Cc1ccccc1)C(=O)N[C@H](C(=O)N[C@@H](Cc1ccccc1)C(=O)N[C@@H](Cc1ccc(O)cc1)C(=O)N[C@@H](Cc1ccccc1)C(=O)N[C@@H](CCSC)C(=O)N[C@H](C(=O)N[C@@H](CC(N)=O)C(=O)N[C@@H](Cc1ccccc1)C(=O)N[C@@H](CC(=O)O)C(=O)N[C@@H](CC(=O)O)C(=O)O)C(C)C)C(C)C [KLAMSMSFNFVFYFMVNFDD]

MIC [17]: 42.5 µM (≈ 49.9 µg/mL)
MIC [18]: ≥ 42.5 µM
MIC (Candida krusei CBS 573): ≥ 42.5 µM
MIC [19]: ≥ 42.5 µM
SMILES: NCCCC[C@@H]1NC(=O)[C@H](CCCCN)NC(=O)[C@H](Cc2cnc[nH]2)NC(=O)[C@H](CCCCN)NC(=O)[C@@H](NC(=O)[C@H](CC(N)=O)NC(=O)[C@@H](N)CC(N)=O)CSSC[C@@H](C(=O)O)NC(=O)CNC(=O)[C@H](CO)NC(=O)CNC1=O [NNCKHKKGSGC]
